Reference: ChEMBL document CHEMBL1201862, “PubChem BioAssay data set” (2004)
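Test compounds were applied to cells in 96-well plates for 48 hours at 5 doses. At the GI50, growth is halved.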 Activity calls are given as the source filed them. Rule as the data show it: active = GI50 up to about 1.1 µM and inactive = higher.

Key:
Experiment in all cases: NCI anticancer screen, dose series, 48 h
HCT-15 = test system: HCT-15
HOP-62 = test system: HOP-62
IGROV-1 = test system: IGROV-1
HT-29 = test system: HT-29
SNB-75 = test system: SNB-75
OVCAR-5 = test system: OVCAR-5
RXF 393 = test system: RXF 393
CCRF-CEM = test system: CCRF-CEM
Malme-3M = test system: Malme-3M
LOX IMVI = test system: LOX IMVI
K562 = test system: K562
HCT-116 = test system: HCT-116
COLO 205 = test system: COLO 205
OVCAR-4 = test system: OVCAR-4
SK-OV-3 = test system: SK-OV-3
CAKI-1 = test system: CAKI-1
MDA-MB-435 = test system: MDA-MB-435
MDA-N = test system: MDA-N
MCF7 = test system: MCF7

Row | Compound | GI50 (HCT-15) [µM] | GI50 (HOP-62) | GI50 (IGROV-1) | GI50 (HT-29) | GI50 (SNB-75) | GI50 (OVCAR-5) | GI50 (RXF 393) | GI50 (CCRF-CEM) | GI50 (Malme-3M) | GI50 (LOX IMVI) | GI50 (K562) | GI50 (HCT-116) | GI50 (COLO 205) | GI50 (OVCAR-4) | GI50 (SK-OV-3) | GI50 (CAKI-1) | GI50 (MDA-MB-435) | GI50 (MDA-N) | GI50 (MCF7)
1 | CCN(CC)c1ccc(C(=O)c2ccccc2C(=O)O)c(O)c1 | > 100 | > 100 µM (inactive) | > 100 µM (inactive) | > 100 µM (inactive) | > 100 µM (inactive) | > 100 µM (inactive) | > 100 µM (inactive) | > 100 µM (inactive) | > 100 µM (inactive) | > 100 µM (inactive) | > 100 µM (inactive) | > 100 µM (inactive) | > 100 µM (inactive) | > 100 µM (inactive) | > 100 µM (inactive) | > 100 µM (inactive) |  |  | 
2 | Oc1cccc(Nc2cc(O)nc(O)n2)c1 | > 100 | > 100 µM (inactive) | > 100 µM (inactive) | > 100 µM (inactive) | > 100 µM (inactive) | > 100 µM (inactive) | > 100 µM (inactive) | > 100 µM (inactive) | > 100 µM (inactive) | > 100 µM (inactive) | > 100 µM (inactive) | > 100 µM (inactive) | > 100 µM (inactive) | > 100 µM (inactive) | 67.9 µM (inactive) | > 100 µM (inactive) | > 100 µM (inactive) | > 100 µM (inactive) | 
3 | N#CI1OC(=O)c2ccccc21 | 37.2 | > 100 µM (inactive) | > 100 µM (inactive) | > 100 µM (inactive) | > 100 µM (inactive) | > 100 µM (inactive) | > 100 µM (inactive) | 2.83 µM (inactive) |  | > 100 µM (inactive) | 39.8 µM (inactive) | > 100 µM (inactive) | > 100 µM (inactive) | > 100 µM (inactive) | > 100 µM (inactive) | 40.7 µM (inactive) | > 100 µM (inactive) |  | 60.7 µM (inactive)
4 | COc1ccc(NC(=S)Nc2cc(C)ccn2)cc1 | > 100 | > 100 µM (inactive) | > 100 µM (inactive) | > 100 µM (inactive) | > 100 µM (inactive) |  | > 100 µM (inactive) | > 100 µM (inactive) |  | > 100 µM (inactive) | > 100 µM (inactive) | > 100 µM (inactive) | > 100 µM (inactive) | > 100 µM (inactive) |  | > 100 µM (inactive) | > 100 µM (inactive) |  | > 100 µM (inactive)
5 | CC1=C([S+]([O-])c2ccc(C)cc2)CCC2(CCCCO2)O1 (stereo not given) | > 100 | > 100 µM (inactive) | > 100 µM (inactive) | > 100 µM (inactive) | > 100 µM (inactive) | > 100 µM (inactive) | > 100 µM (inactive) |  | > 100 µM (inactive) | > 100 µM (inactive) | 46.8 µM (inactive) | > 100 µM (inactive) | > 100 µM (inactive) | > 100 µM (inactive) |  | > 100 µM (inactive) | > 100 µM (inactive) |  | > 100 µM (inactive)
6 | CC(=O)OCCn1c(Cc2ccc(Cl)cc2)nn(C(C)=O)c1=O | > 100 |  | > 100 µM (inactive) | > 100 µM (inactive) |  | > 100 µM (inactive) |  | > 100 µM (inactive) | > 100 µM (inactive) | > 100 µM (inactive) | > 100 µM (inactive) | > 100 µM (inactive) | > 100 µM (inactive) | > 100 µM (inactive) | > 100 µM (inactive) | > 100 µM (inactive) | > 100 µM (inactive) | > 100 µM (inactive) | > 100 µM (inactive)
7 | CC(C)OC(=O)C1=C2c3ncccc3C(=O)N2[C@@H](Cl)[C@H](Cl)[C@H]1Cl | 70.3 | > 100 µM (inactive) | 31.1 µM (inactive) | > 100 µM (inactive) |  | > 100 µM (inactive) | > 100 µM (inactive) |  | 28.8 µM (inactive) | 68.9 µM (inactive) | 30.5 µM (inactive) | 50.6 µM (inactive) | 44 µM (inactive) | > 100 µM (inactive) |  | > 100 µM (inactive) | 81.1 µM (inactive) | 50.9 µM (inactive) | 39.1 µM (inactive)
8 | Nc1ccccc1CCN1CCN(CCCc2ccccc2)CC1 | 33.2 | > 100 µM (inactive) | 50.6 µM (inactive) | 21.4 µM (inactive) |  | > 100 µM (inactive) |  | 46.1 µM (inactive) | 14.1 µM (inactive) | 34.4 µM (inactive) | 27.8 µM (inactive) | 34.7 µM (inactive) | 21 µM (inactive) | 65.8 µM (inactive) | > 100 µM (inactive) | 57.3 µM (inactive) | 72.4 µM (inactive) | 53 µM (inactive) | 46.8 µM (inactive)
9 | COC1(OC)N=C(N)C2(C#N)C(c3ccccc3)NC3=C(CCC3)C12C#N (stereo not given) | > 100 | > 100 µM (inactive) | > 100 µM (inactive) | > 100 µM (inactive) |  | > 100 µM (inactive) | > 100 µM (inactive) | > 100 µM (inactive) | > 100 µM (inactive) | > 100 µM (inactive) |  | > 100 µM (inactive) | > 100 µM (inactive) | > 100 µM (inactive) | > 100 µM (inactive) | > 100 µM (inactive) | > 100 µM (inactive) | > 100 µM (inactive) | > 100 µM (inactive)
10 | CCOC(=O)/C(C#N)=C/Nc1c(C)n(C)n(-c2ccccc2)c1=O | > 100 |  | > 100 µM (inactive) |  |  | > 100 µM (inactive) | > 100 µM (inactive) | > 100 µM (inactive) | > 100 µM (inactive) | > 100 µM (inactive) | > 100 µM (inactive) | > 100 µM (inactive) | > 100 µM (inactive) | > 100 µM (inactive) | > 100 µM (inactive) | > 100 µM (inactive) | > 100 µM (inactive) | > 100 µM (inactive) | > 100 µM (inactive)
11 | CN(C)c1ccc(/C=N/NC(=S)Nc2ccccc2)cc1 | > 100 | 96.4 µM (inactive) | > 100 µM (inactive) | > 100 µM (inactive) | > 100 µM (inactive) | > 100 µM (inactive) | > 100 µM (inactive) | > 100 µM (inactive) | > 100 µM (inactive) | > 100 µM (inactive) | > 100 µM (inactive) | > 100 µM (inactive) | > 100 µM (inactive) | > 100 µM (inactive) | > 100 µM (inactive) | > 100 µM (inactive) | > 100 µM (inactive) |  | > 100 µM (inactive)
12 | c1ccc2c(c1)Sc1ccccc1N2CC1CN2CCC1CC2 (stereo not given) [MEQUITAZINE] | 7.18 | 13.4 µM (inactive) | 11.2 µM (inactive) | 3.01 µM (inactive) | 1.75 µM (inactive) | 11.7 µM (inactive) | 2.31 µM (inactive) | 3.28 µM (inactive) | 1.94 µM (inactive) | 3.08 µM (inactive) | 2.11 µM (inactive) | 3.52 µM (inactive) | 1.69 µM (inactive) | 6.5 µM (inactive) | 12.5 µM (inactive) | 8.26 µM (inactive) | 2.8 µM (inactive) |  | 3.4 µM (inactive)
